Experimental data taken from patent publication US10118925B2, “Imidazo[4,5-c] ring compounds containing substituted guanidine groups” (3M INNOVATIVE PROPERTIES COMPANY, priority 2015, dated 2018).
Structures can show the parent of a compound that is named as a salt.

Columns and labels:
[1] = tested on: Human peripheral blood mononuclear cells (PBMC); test: Cytokine induction in human cells (PBMC): IFN-alpha by ELISA; type: cell-based; settings: 21-24 hrs, lowest concentration inducing cytokine at least 2× negative control, tested 0.0001-10 micromolar
Method: (§1) Whole blood was obtained from healthy human donors and collected by venipuncture into vacutainer tubes or syringes containing EDTA. Human peripheral blood mononuclear cells (PBMC) were purified from the whole blood by density gradient centrifugation. Histopaque 1077 (15 mL, Sigma, St. Louis, Mo.) was transferred to 6×50 mL sterile polypropylene conical tubes. The Histopaque was overlayed with 15-25 mL of blood diluted 1:2 in Hank's Balanced Salts Solution (HBSS) (Gibco, Life Technology, Grand Island N.Y.). The tubes were then centrifuged at 1370 rpm for 30 minutes at 20° C., with no brake (400×g, GH 3.8 A Rotor).
(§2) The interface (buffy coat) containing the PBMC was collected and placed in a new sterile 50 mL conical polypropylene centrifuge tube. The PBMC were mixed with an equal volume of HBSS (about 20 mL from the interface and about 20 mL of HBSS), and then centrifuged at 1090 rpm, 10 min, 20° C., with brake (270×g, GH 3.8 A Rotor). After completing centrifugation, the cells were resuspended in 2-3 mL ACK Red blood cell lysis buffer (ammonium chloride potassium solution, Gibco, Life Technology) and incubated for 2-5 minutes at 20° C. […]
(§3) The number of viable cells were determined by counting with a Miltenyi FACS instrument (Miltenyi Biotec Inc., San Diego, Calif.) or by using a hemacytometer. […] Ten microliters of the diluted cells were then applied to the hemacytometer, and the number of viable PBMC were determined by microscopy. […]
(§4) IFN-alpha cytokine levels (pg/mL) were measured by ELISA (human IFN-α, pan specific, Mabtech, Cinncinnati, Ohio), IFN-gamma, TNF-alpha, and IP-10 cytokine levels (pg/mL) were measured by multiplex bead assay (magnetic beads, R & D Systems Minneapolis, Minn.) according to the manufacturer's instructions.
(§5) Specifically, the minimum effective concentration of each compound (micromolar) was determined as the lowest concentration of the compound that induced a measured cytokine response at a level ([…]) that was at least 2× greater than that observed with the negative control wells.

[2] = tested on: Human peripheral blood mononuclear cells (PBMC); test: Cytokine induction in human cells (PBMC): IFN-gamma by multiplex bead assay; type: cell-based; settings: 21-24 hrs, lowest concentration inducing cytokine at least 2× negative control, tested 0.0001-10 micromolar
Method: as §1, §2, §3, §4, §5

[3] = tested on: Human peripheral blood mononuclear cells (PBMC); test: Cytokine induction in human cells (PBMC): TNF-alpha by multiplex bead assay; type: cell-based; settings: 21-24 hrs, lowest concentration inducing cytokine at least 2× negative control, tested 0.0001-10 micromolar
Method: as §1, §2, §3, §4, §5

[4] = tested on: Human peripheral blood mononuclear cells (PBMC); test: Cytokine induction in human cells (PBMC): IP-10 by multiplex bead assay; type: cell-based; settings: 21-24 hrs, lowest concentration inducing cytokine at least 2× negative control, tested 0.0001-10 micromolar
Method: as §1, §2, §3, §4, §5

Structure (SMILES)	melting point	MEC to Induce Cytokine IFN-alpha [1]	MEC to Induce Cytokine IFN-gamma [2]	MEC to Induce Cytokine TNF-alpha [3]	MEC to Induce Cytokine IP-10 [4]
CCCCc1nc2c(N)nc3ccccc3c2n1CCCCNC(=N)NC(C)C (as salt: hydrochloride) [Example 1, 1-[4-(4-amino-2-butyl-imidazo[4,5-c]quinolin-1-yl)butyl]-3-isopropyl-guanidine dihydrochloride]	210 to 216 °C	–	–	–	–
CCCCc1nc2c(N)nc3ccccc3c2n1CCCCN/C(=N/C(C)C)NC(C)C (as salt: hydrochloride) [Example 2, 1-[4-(4-amino-2-butyl-imidazo[4,5-c]quinolin-1-yl)butyl]-2,3-diisopropyl-guanidine Dihydrochloride]	172 to 174 °C	–	–	–	–
CCCCc1nc2c(N)nc3ccccc3c2n1CCCCNC(=N)NC(C)C [Example 1, 1-[4-(4-amino-2-butyl-imidazo[4,5-c]quinolin-1-yl)butyl]-3-isopropyl-guanidine dihydrochloride]	–	0.01 µM	0.1 µM	0.1 µM	0.001 µM
CCCCc1nc2c(N)nc3ccccc3c2n1CCCCN/C(=N/C(C)C)NC(C)C [Example 2, 1-[4-(4-amino-2-butyl-imidazo[4,5-c]quinolin-1-yl)butyl]-2,3-diisopropyl-guanidine Dihydrochloride]	–	0.1 µM	1 µM	10 µM	0.1 µM
CC(C)Cn1cnc2c(N)nc3ccccc3c21 [imiquimod, reference compound]	–	10 µM	10 µM	10 µM	10 µM
